Reference: publication PMC12185792, “Guanylate cyclase activity in moss: revisiting the role of ERECTA-like receptors” (Physiology and Molecular Biology of Plants, 2025)

T1: PpERL1 (Physcomitrium patens ERECTA-like receptor 1) (Physcomitrium patens, UniProt A0A2K1L2N0)
T1 construct: gene LOC112274326; intracellular fragment 658-1018 (kinase domain with embedded GC motif 877-893) of 1018 residues; N-terminal GST tag kept (pGEX-6P-2), about 66 kDa; E. coli BL21(DE3)pLysS
T1 sequence (A0A2K1L2N0 658-1018): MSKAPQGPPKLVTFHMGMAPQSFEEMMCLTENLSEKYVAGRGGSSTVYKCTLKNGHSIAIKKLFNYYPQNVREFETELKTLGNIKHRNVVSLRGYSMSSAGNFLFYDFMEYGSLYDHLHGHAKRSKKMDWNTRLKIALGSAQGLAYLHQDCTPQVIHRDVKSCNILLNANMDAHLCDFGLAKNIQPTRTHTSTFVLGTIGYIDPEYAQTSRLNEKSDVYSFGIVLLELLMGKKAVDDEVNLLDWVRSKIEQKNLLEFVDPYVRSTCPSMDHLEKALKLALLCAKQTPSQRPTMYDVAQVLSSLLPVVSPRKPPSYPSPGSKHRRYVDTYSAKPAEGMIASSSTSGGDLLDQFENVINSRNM

B1: PpERL1 (Physcomitrium patens ERECTA-like receptor 1) (Physcomitrium patens) (protein)
chain: T1 sequence (A0A2K1L2N0 658-1018)
notes: intracellular fragment 658-1018 (kinase domain with embedded GC motif 877-893) of 1018 residues; N-terminal GST tag kept (pGEX-6P-2), about 66 kDa; E. coli BL21(DE3)pLysS

Assays:
[1] = target: T2, PpERL1 (Physcomitrium patens ERECTA-like receptor 1) (Physcomitrium patens, UniProt A0A2K1L2N0, K890N); assay: Kinase-Glo Plus luminescent kinase assay, histone type III; format: biochemical; details: 10 μM ATP, 5 mM MgCl2, 1 mM DTT, Tris-HCl pH 7.5, 30 °C; inhibition of kinase domain, possibly via GC domain
T2 construct: gene LOC112274326; intracellular fragment 658-1018 (kinase domain with embedded GC motif 877-893) of 1018 residues; N-terminal GST tag kept (pGEX-6P-2), about 66 kDa; E. coli BL21(DE3)pLysS

[2] = target: T1, PpERL1 (Physcomitrium patens ERECTA-like receptor 1); assay: as above; format: biochemical; details: 10 μM ATP, 5 mM MgCl2, 1 mM DTT, Tris-HCl pH 7.5, 30 °C; inhibition of kinase domain, possibly via GC domain
[3] = substrate: Nc1nc2c(ncn2[C@@H]2O[C@H](COP(=O)(O)OP(=O)(O)OP(=O)(O)O)[C@@H](O)[C@H]2O)c(=O)[nH]1; assay: guanylate cyclase assay, cGMP by LC-MS/MS; format: biochemical, Physcomitrium patens; details: GTP 0.1-3 mM, 5 mM MgCl2, 2.5 mM MnCl2, 1 mM DTT, Tris-HCl pH 7.5, 30 °C, no CaCl2

T2 sequence (A0A2K1L2N0 entry or part of it K890N): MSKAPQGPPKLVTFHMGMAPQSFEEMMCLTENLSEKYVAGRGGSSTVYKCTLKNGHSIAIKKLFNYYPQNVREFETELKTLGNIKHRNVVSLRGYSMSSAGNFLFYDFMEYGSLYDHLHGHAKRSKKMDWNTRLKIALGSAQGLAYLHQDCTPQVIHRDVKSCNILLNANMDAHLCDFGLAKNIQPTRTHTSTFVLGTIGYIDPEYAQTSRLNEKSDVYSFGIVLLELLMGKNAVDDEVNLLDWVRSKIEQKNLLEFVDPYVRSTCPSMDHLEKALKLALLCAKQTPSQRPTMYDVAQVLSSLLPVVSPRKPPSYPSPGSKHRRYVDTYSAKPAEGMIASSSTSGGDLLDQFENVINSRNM

Molecule	relative kinase activity at 1 mM GTP [1]	relative kinase activity at 1 mM GTP [2]	Km [3]
Nc1nc2c(ncn2[C@@H]2O[C@H](COP(=O)(O)OP(=O)(O)OP(=O)(O)O)[C@@H](O)[C@H]2O)c(=O)[nH]1 [GTP]	the presence of GTP resulted in a slight decrease in kinase activity	adding GTP to the reaction mixture led to a significant decrease in kinase activity	
B1			609.8 µM
